# Data from patent US20230149337A1, “OPHTHALMIC FORMULATION AND ITS USE” (OY FINNSUSP AB, priority 2020, published 2023).
# Read-outs that look alike come from different tables or passages of the source.
# How the values were obtained:
# [1] = Langmuir trough: surface pressure isotherms and BAM of pure films; type: physicochemical; conditions: pure film under compression
# Description: The interactions of the microemulsion formulation SIME02A explained in Example 2 with a tear film lipid layer (TFLL) component were studied in a Langmuir trough model system. A naturally occurring lipid 20 (oleoyloxy)icosanoic acid (20-OAHFA) which represents the O-acyl-ω-hydroxy fatty acids in the TFLL was selected as a model lipid and synthesized as described in Bland et al. Langmuir 2019, 35, 3545-3552. The experiments were performed on a KSV NIMA Large trough equipped with a surface pressure balance with a platinum Wilhelmy plate, a KSV SPOT surface potential meter and KSV NIMA microBAM Brewster angle microscope (BAM), all from Biolin Scientific (Stockholm, Sweden). The Langmuir trough system was enclosed in a plastic hood with an inlet supply of dry and ozone-depleted air (Ozone solutions ODS-3P, Hull, Iow. USA) to prevent oxidation of lipids.
# The Langmuir trough was filled with phosphate-buffered saline (PBS) as a subphase maintained at 35±1° C. to emulate the aqueous layer of the tear film. The model lipid 20-OAHFA or pure sacha inchi (SI) seed oil was dissolved in chloroform and spread on the surface of the PBS subphase. Chloroform was allowed to evaporate for 5 min. […] The lipid film was compressed and expanded in the trough with two Delrin barriers at a rate of 13 mm/min while the surface pressure and surface potential were measured. […]
# [2] = Solubility of dexamethasone in microemulsion formulations; type: physicochemical; conditions: for solubility: aqueous with cosolvent or surfactant or cyclodextrin, equilibrium from dmso stock, room temperature, 8-9 days, read-out: Solubility of DXM
# Description: The solubility of dexamethasone (DXM) in the microemulsion formulations was studied. To formulations containing 0.1%, 0.5%, 1%, or 5% of the sacha inchi seed oil, DXM ([…] stock in dimethyl sulfoxide, DMSO) was added at concentrations of […] in triplicate. […] The test vials were incubated at room temperature with continuous shaking (90 rpm) for 8-9 days until equilibrium. After incubation, the samples were mixed 1:1 with acetonitrile for 10 min and centrifuged (13,000 rpm, 10 min), followed by immediate HPLC analysis of the supernatant for DXM concentration. HPLC analysis was performed with Agilent 1100 series HPLC system and Eclipse XDB-C18 column (1.8 μm, 4.6×50 mm; Agilent) maintained at 60° C. Isocratic elution of the 5-μl sample injected was performed with 65% Eluent A (1% TFA in Milli-Q water) and 35% Eluent B (0.1% TFA in acetonitrile) at flow rate 1 ml/min and UV detection at 240 nm.
SMILES,Surface pressure of transition to a solid monolayer [1] [mN/m],Solubility of DXM relative to PBS ([2]; 1% oil concentration in the formulation) [times],"solubility ([2]; microemulsion formulation with 5% sacha inchi seed oil, microemulsion with 5% oil) [µg/mL]",Solubility of DXM relative to PBS ([2]; microemulsion with 5% oil),Solubility of DXM relative to PBS ([2]; microemulsions with lower oil concentrations),"solubility ([2]; phosphate-buffered saline (PBS), PBS alone) [µg/mL]"
"CCCCCCCC/C=C\CCCCCCCC(=O)OCCCCCCCCCCCCCCCCCCCC(=O)O [20-OAHFA, 20 (oleoyloxy)icosanoic acid]",2.5,,,,,
"C[C@@H]1C[C@H]2[C@@H]3CCC4=CC(=O)C=C[C@]4(C)[C@@]3(F)[C@@H](O)C[C@]2(C)[C@@]1(O)C(=O)CO [DXM, Dexamethasone]",,2.5,~3700,about 15 times,at the same level as in PBS,~250
